Data published in PMC8405607 (British Journal of Cancer, 2021).
Where “and” joins values, the source holds several entries; their conditions need not be identical. Equal entries are not always repeated. Where two headings read alike, the source gives them in different places. Marks after values point to notes of the source that are not given here.

Columns and labels:
Type in all cases: in vivo, human
[1] = population PK model (2-compartment, nonlinear mixed-effect); settings: for Vd/F: human, plasma, oral
Description: A total of 1919 observations (924 plasma PK, 717 platelet, and 278 GDF-15 measurements) and 20 platelet transfusion events derived from 46 patients were included in the dataset (data cutoff, January 2016). […] S1. The equations for the respective models are provided in the Supplementary Material (Supplementary Data). Models were evaluated based on the change in the Akaike’s information criterion (AIC) value, the convergence of the SAEM algorithm, the precision of the parameter estimates (NLME derived % relative standard error [RSE%]) and decreases in IIV and residual variability. Diagnostic plots were used to evaluate model adequacy, including evaluation of observations versus population and individual predicted (IPRED), and the distributions of conditional weighted residuals (CWRES) or normalised prediction distribution error (NPDE) versus time/observations or over time plots (Supplementary Figs. S2–S4). The predictive performance of the final models was evaluated by simulating 500 datasets using parameter estimates (fixed and random effects) and plotting a visual predictive check (Supplementary Fig. S5). For serum GDF-15, serum concentration levels above the upper limit of quantification (>50,000 pg/mL) were handled as right-censored data.

[2] = system: platelets; test: semi-mechanistic PK/PD model of platelet kinetics (thrombocytopenia)
Text: (§1) A total of 1919 observations (924 plasma PK, 717 platelet, and 278 GDF-15 measurements) and 20 platelet transfusion events derived from 46 patients were included in the dataset (data cutoff, January 2016). […] We used the stochastic approximation of the expectation-maximisation (SAEM) algorithm[13] implemented in the Monolix software (version 4.3.2, Lixoft) to estimate the fixed (population-level typical values) and random (inter-individual variability) effects for each model parameter and a residual error.
A semi-mechanistic model mimicking hematopoietic cell maturation and regulation was developed to describe the time course of platelet kinetics and drug action on immature cells and modified from Friberg et al.[14] […] A schematic diagram of the PK and PK/PD models for platelets (thrombocytopenia) and for GDF-15 time-course relationship is presented in Supplementary Fig. S1. The equations for the respective models are provided in the Supplementary Material (Supplementary Data).
Models were evaluated based on the change in the Akaike’s information criterion (AIC) value, the convergence of the SAEM algorithm, the precision of the parameter estimates (NLME derived % relative standard error [RSE%]) and decreases in IIV and residual variability. Diagnostic plots were used to evaluate model adequacy, including evaluation of observations versus population and individual predicted (IPRED), and the distributions of conditional weighted residuals (CWRES) or normalised prediction distribution error (NPDE) versus time/observations or over time plots (Supplementary Figs. S2–S4). The predictive performance of the final models was evaluated by simulating 500 datasets using parameter estimates (fixed and random effects) and plotting a visual predictive check (Supplementary Fig. S5). For serum GDF-15, serum concentration levels above the upper limit of quantification (>50,000 pg/mL) were handled as right-censored data.
Schematic representation of the semi-physiological model mimicking the hematopoietic cell maturation and regulation of platelets (PLT). A self-renewing progenitor compartment (P1) is connected to transit compartments (P2, P3, P4) representing maturation process, and leading to a circulating blood compartment (P5). A systemic regulation mechanism (sFBK) mimics the increase in proliferation rate as PLT count decreases below baseline, while a local feedback (lFBK) mechanism mimics how the number of cells in the first compartment affects the proliferation of cells in subsequent compartments. This model includes a drug effect decoupled from systemic feedback. Drug effect involves both a direct (slpd∙C) and an indirect (slPi∙ESEP) diminution of the proliferation ability of progenitor cells, as well as an indirect effect on the systemic feedback through an effect compartment. PLT transfusion events (ut) are considered as a PLT transfusion dose in the circulating blood compartment.

[3] = system: GDF-15; test: indirect response PK/PD model of serum GDF-15
Text: as §1
A semi-mechanistic model mimicking hematopoietic cell maturation and regulation was developed to describe the time course of platelet kinetics and drug action on immature cells and modified from Friberg et al.[14] […]
Models were evaluated based on the change in the Akaike’s information criterion (AIC) value, the convergence of the SAEM algorithm, the precision of the parameter estimates (NLME derived % relative standard error [RSE%]) and decreases in IIV and residual variability. […] The predictive performance of the final models was evaluated by simulating 500 datasets using parameter estimates (fixed and random effects) and plotting a visual predictive check (Supplementary Fig. S5). For serum GDF-15, serum concentration levels above the upper limit of quantification (>50,000 pg/mL) were handled as right-censored data. […]

For `COc1cc2c(cc1OC(C)C)[C@H](c1ccc(Cl)cc1)N(c1ccc(N(C)C[C@H]3CC[C@H](N4CCN(C)C(=O)C4)CC3)cc1)C(=O)C2` [CGM097], the Vd/F ([1]; population estimate, read-out: V1/F, Apparent central volume of distribution) was 92.6 L, the Vd/F ([1]; read-out: Vc/F, apparent central volume of distribution, population value) was 67 L and the “CL/F, Apparent clearance” value ([1]; population estimate) was 1.62 L/h. For the same compound, the “Ka, First-order absorption rate constant” value ([1]; population estimate) was 2.05 h⁻¹, the “Tlag, Absorption lag-time” value ([1]; population estimate) was 0.39 h and 0.383 h and the “SlPi, Drug indirect thrombocytopenia potency through effect compartment” value ([2]; fixed) was 0.0176 ^a mL/ng. For the same compound, the “IIV (CV%) of slPi, early cell killing / drug thrombocytopenia potency parameter” value ([2]; in vivo) was 314% and ~ 314%, the “MMT, Mean maturation time of drug affected cells” value ([2]; population estimate) was 264 h and the “SEP, Indirect effect thrombocytopenia potency power” value ([2]; population estimate) was 0.74. The “SlPd, Drug direct thrombocytopenia potency” value ([2]; population estimate) was 3.93e-05 mL/ng, the “cfr, Drug effect potency on systemic regulation” value ([2]; population estimate) was -1.62 mL/ng and the “GDF-15 level prior to the next treatment cycle” value ([3]; intermittent 2 weeks on/1 week off dosing) was “return of GDF-15 level to baseline”. For the same compound, the “Sg, Drug potency (GDF-15 production)” value ([3]; population estimate) was 0.00078 mL/ng.
